Experimental data from US6790865B2, “2-methylpropionic acid derivatives and pharmaceutical compositions comprising the same” (Kissei Pharmaceutical Co., Ltd., priority 1998, dated 2004).
Where a name gives a salt, the structure may show the parent alone.

Experiments:
[1] = biological target: β3-adrenoceptor (Mustela putorius furo, UniProt M3YEU4); assay: β3-adrenoceptor stimulating effects, isolated ferret urinary bladder smooth muscle relaxation (Magnus method); type: cell-based; details: isolated male ferret urinary bladder smooth muscle strips; 0% = maximal relaxation after 10^−5M forskolin; read-out: EC50 (concentration producing 50% decrease of urinary bladder tension)
β3-adrenoceptor, sequence (M3YEU4 entry or part of it): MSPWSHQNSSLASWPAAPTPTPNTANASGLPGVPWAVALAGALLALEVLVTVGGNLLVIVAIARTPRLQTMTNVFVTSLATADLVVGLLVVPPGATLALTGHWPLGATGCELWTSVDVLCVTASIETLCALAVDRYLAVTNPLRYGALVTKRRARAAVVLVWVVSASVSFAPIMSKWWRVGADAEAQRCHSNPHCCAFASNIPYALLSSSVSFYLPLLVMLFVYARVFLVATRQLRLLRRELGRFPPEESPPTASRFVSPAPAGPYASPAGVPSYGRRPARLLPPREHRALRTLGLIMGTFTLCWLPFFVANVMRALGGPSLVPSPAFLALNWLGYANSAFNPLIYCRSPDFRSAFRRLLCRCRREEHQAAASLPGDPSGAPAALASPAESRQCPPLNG
Protocol: Namely, urinary bladders of ferrets were isolated and preparations were made. The experiment was conducted according to the Magnus method. The […] tension without the addition of the drug is expressed as 100%, and the tension of maximal relaxation after the addition of 10^−5M of forscolin was expressed as 0%. The drug was added cumulatively. The β3-adrenoceptor stimulating effects were evaluated as the concentration of the drug required to produce 50% decrease of the tension (i.e., EC50 value) (The Japanese Journal of Urology, Vol.89, No.2, p.272 (1998)).
The Experiment for Measuring β3-Adrenoceptor Stimulating Effects
Urinary bladders of male ferrets (1100 to 1400 g in body weight) were isolated and urinary bladder smooth muscle strips of approximately 10 mm in length and approximately 2 mm in width were prepared. The experiment was conducted according to the Magnus method. The preparations with a tension of 1 g were exposed to Krebs-Henseleit solution maintained at 37° C. and gassed with a mixture of 95% oxygen and 5% carbon dioxide. Basal tensions of urinary bladder were isometrically measured with a force-displacement transducer and recorded on a rectigram. […] In this experiment, tension of urinary bladder smooth muscle before the addition of the drug was expressed as 100% and tension of maximal relaxation after the addition of 10^−5M concentration of forskolin was expressed as 0%.

[2] = biological target: T1, β1-adrenoceptor (Rattus norvegicus, UniProt P18090); assay: β1-adrenoceptor stimulating effects, isolated rat atria heart rate increase (Magnus method); type: cell-based; details: isolated male SD rat atria; 100% = heart rate increase after 10^−8M isoproterenol; read-out: EC50 (concentration producing 50% increase of heart rate)
T1 construct: Atria of male SD rats (250 to 400 g in body weight) were isolated; from tissue; host or cells: isolated atria of male SD rats
T1 sequence (P18090 whole entry): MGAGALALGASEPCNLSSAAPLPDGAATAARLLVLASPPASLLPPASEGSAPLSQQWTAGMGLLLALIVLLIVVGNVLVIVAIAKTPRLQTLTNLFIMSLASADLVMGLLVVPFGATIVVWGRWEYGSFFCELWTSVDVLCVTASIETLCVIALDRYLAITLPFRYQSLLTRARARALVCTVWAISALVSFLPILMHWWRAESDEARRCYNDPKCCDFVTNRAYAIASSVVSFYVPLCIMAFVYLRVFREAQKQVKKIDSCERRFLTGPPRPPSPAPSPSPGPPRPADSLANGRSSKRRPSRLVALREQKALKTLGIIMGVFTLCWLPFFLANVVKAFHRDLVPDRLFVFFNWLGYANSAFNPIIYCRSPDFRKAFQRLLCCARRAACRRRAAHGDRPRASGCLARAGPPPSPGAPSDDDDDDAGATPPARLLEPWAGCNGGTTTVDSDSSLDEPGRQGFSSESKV
Protocol: Namely, atria of rats were isolated and preparations were made. The experiment was conducted according to the Magnus method. The increment of heart rate after the addition of isoproterenol (10^−8M) was expressed as 100%. The drug was added cumulatively. The β1-adrenoceptor stimulating effects were evaluated as the concentration of the drug required to produce 50% increase of heart rate (i.e., EC50 value).
The Experiment for Measuring β1-Adrenoceptor Stimulating Effects
Atria of male SD rats (250 to 400 g in body weight) were isolated and the experiment was conducted according to the Magnus method. The preparations with a tension of 0.5 g were exposed to Krebs-Henseleit solution maintained at 37° C. and gassed with a mixture of 95% oxygen and 5% carbon dioxide. The cardiac contractility was isometrically measured with a force-displacement transducer, and heart rate was recorded on a rectigram via a tachometer. The drug was added cumulatively. The drug efficacy was evaluated as the concentration of the drug required to produce 50% increase of heart rate per minute (i.e., EC50 value). In this experiment, increase of heart rate per minute after addition of 10^−8M of isoproterenol was expressed as 100%.

[3] = biological target: T2, β2-adrenoceptor (Rattus norvegicus, UniProt P10608); assay: β2-adrenoceptor stimulating effects, isolated pregnant rat uterus contraction inhibition (Magnus method); type: cell-based; details: isolated uteri of pregnant SD rats (pregnancy day 21); spontaneous contractions summed over 5 minutes; read-out: EC50 (concentration producing 50% inhibition of uterine contraction)
T2 construct: Uteri of pregnant SD rats (pregnancy day 21) were isolated; from tissue; host or cells: longitudinal uterine strips of pregnant SD rats (day 21)
T2 sequence (P10608 whole entry): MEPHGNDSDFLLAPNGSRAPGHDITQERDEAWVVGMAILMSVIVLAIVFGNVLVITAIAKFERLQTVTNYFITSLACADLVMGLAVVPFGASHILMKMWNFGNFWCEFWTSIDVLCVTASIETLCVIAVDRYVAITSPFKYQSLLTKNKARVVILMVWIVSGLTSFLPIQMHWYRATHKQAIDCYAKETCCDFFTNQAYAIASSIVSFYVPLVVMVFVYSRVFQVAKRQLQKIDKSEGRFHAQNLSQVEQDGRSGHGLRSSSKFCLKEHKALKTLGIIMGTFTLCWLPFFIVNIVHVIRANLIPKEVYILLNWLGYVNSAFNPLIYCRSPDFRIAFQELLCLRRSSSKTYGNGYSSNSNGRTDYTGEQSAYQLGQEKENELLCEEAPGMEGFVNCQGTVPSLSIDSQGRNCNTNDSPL
Protocol: Also, uteri of pregnant rats were isolated and preparations were made. The experiment was conducted according to the Magnus method. The sum of uterine contractions during 5 minutes before the addition of the drug was expressed as 100%. The drug was added cumulatively. The β2-adrenoceptor stimulating effects were evaluated as the concentration of the drug required when the sum of the contractions during 5 minutes after the addition of the drug produces 50% decrease of the sum of the contractions during 5 minutes before the addition of the drug (i.e., EC50 value).
The Experiment for Measuring β2-Adrenoceptor Stimulating Effects
Uteri of pregnant SD rats (pregnancy day 21) were isolated and longitudinal strips of approximately 15 mm in length and approximately 5 mm in width free from the basal plate were prepared. The experiment was conducted according to the Magnus method. The preparations with a tension of 0.5 g were exposed to Locke-Ringer solution maintained at 37° C. and gassed with a mixture of 95% oxygen and 5% carbon dioxide. Spontaneous contractions of myometrium were isometrically measured with a force-displacement transducer and recorded on a rectigram. The drug was cumulatively added to the Magnus bath every 5 minutes. The drug efficacy was evaluated as the concentration of the drug required to produce 50% of the inhibition of uterine contraction (i.e., EC50 value) by comparing the sum of uterine contraction during 5 minutes after the addition of the drug with the sum of uterine contractions during 5 minutes before the addition of the drug which was expressed as 100%.

[4] = test system: male ICR rats; assay: Acute toxicity test; type: in vivo
Excerpt: Furthermore, the compounds represented by the above general formula (I) of the present invention are very safe compounds.

EC50 [3]	SMILES	EC50 [1]	EC50 [2]	death of animals in acute toxicity test ([4]; male ICR rats of 4 weeks age, intravenous, 400 mg/kg, during 24 hours after administration, 400 mg/kg)	death of animals in acute toxicity test ([4]; male ICR rats of 4 weeks age, intravenous, 400 mg/kg, during 24 hours after administration; 400 mg/kg))
0.045 µM	CCOC(=O)C(C)(C)Oc1ccc(CCN[C@@H](C)[C@H](O)c2ccc(O)cc2)c(Cl)c1 [Compound 7, Ethyl 2-[3-chloro-4-[2-[[(1S,2R)-2-hydroxy-2-(4-hydroxy-phenyl)-1-methylethyl]amino]ethyl]phenoxy]-2-methyl-propionate hydrochloride]		0.3 µM		
38 µM	C[C@H](NCCc1ccc(OC(C)(C)C(=O)O)c(Cl)c1)[C@H](O)c1ccc(O)cc1 [Compound 11, 2-[2-Chloro-4-[2-[[(1S,2R)-2-hydroxy-2-(4-hydroxyphenyl)-1-methylethyl]amino]ethyl]phenoxy]-2-methylpropionic acid]		> 100 µM		
1.4 µM	C[C@H](NCCc1ccc(NC(C)(C)C(=O)O)cc1Cl)[C@H](O)c1ccc(O)cc1 [Compound 14, 2-[[3-Chloro-4-[2-[[(1S,2R)-2-hydroxy-2-(4-hydroxyphenyl)-1-methylethyl]amino]ethyl]phenyl]amino]-2-methylpropionic acid]		2.2 µM		

The remaining lines, values behind:

SMILES	EC50 [3]	EC50 [1]	EC50 [2]	death of animals in acute toxicity test ([4]; male ICR rats of 4 weeks age, intravenous, 400 mg/kg, during 24 hours after administration, 400 mg/kg)	death of animals in acute toxicity test ([4]; male ICR rats of 4 weeks age, intravenous, 400 mg/kg, during 24 hours after administration; 400 mg/kg))
C[C@H](Cc1ccc(OCC(=O)O)cc1)NC[C@H](O)c1cccc(Cl)c1 [BRL-37344, reference compound]	0.009 µM	0.0016 µM	0.27 µM		
C[C@H](NCCc1ccc(OC(C)(C)C(=O)O)cc1Cl)[C@H](O)c1ccc(O)cc1 [Compound 9, 2-[3-Chloro-4-[2-[[(1S,2R)-2-hydroxy-2-(4--hydroxyphenyl)-1-methylethyl]amino]ethyl]phenoxy]-2-methylpropionic acid]	3.1 µM		35 µM	no death was observed	No death of animals was observed
C[C@H](NCCc1ccc(OC(C)(C)C(=O)O)cc1)[C@H](O)c1ccc(O)cc1 [Compound 10, 2-[4-[2-[[(1S,2R)-2-Hydroxy-2-(4-hydroxyphenyl)-1-methyl-ethyl]amino]ethyl]phenoxy]-2-methylpropionic acid]	3.9 µM				
Cc1cc(CCN[C@@H](C)[C@H](O)c2ccc(O)cc2)ccc1OC(C)(C)C(=O)O [Compound 12]	> 100 µM		> 100 µM		
C[C@H](NCCc1ccc(NC(C)(C)C(=O)O)cc1)[C@H](O)c1ccc(O)cc1 [Compound 13, 2-[[4-[2-[[(1S,2R)-2-Hydroxy-2-(4-hydroxyphenyl)-1-methyl-ethyl]amino]ethyl]phenyl]amino]-2-methylpropionic acid]	11 µM		39 µM		
